Measured values: patent US11028127B2, “Peptides capable of reactivating p53 mutants” (Yeda Research and Development Co. Ltd., priority 2013, dated 2021)
Primed or numbered codes have the meaning given here. Where no end group is shown, it is not given here. [ ]: non-standard residue; d: D form. The star is where a group is joined. FITC′ = fluorescein isothiocyanate label at the N-terminus; Myristoyl = CCCCCCCCCCCCCC(=O)*

Test system: Mut-p53
Assay: Total activity score over combined assays (Table 8)
Parameters: scale not given here
Conditions: for Activity Score: Table 10 summary of activity of the peptides tested; for AS (Activity Score): total score of Table 7; for Conformation, activity score / PCR, activity score: Table 8; for Conformation, activity score: the 14 score columns c4-c17 stand under the heads Conformation, DNA binding, Viability, PCR; for PCR, activity score: head span not shown
Text: Several alternative and complementary methods to screen lead peptide candidates for conformational and functional effects on Mut-p53 were employed. For increased penetration of peptide across cell membranes each peptide contains 3-6 Arginine residues either as part of its sequence or added either at its N-terminus or its C-terminus. […] In-vitro based assays for evaluation were first performed, such as ELISA for assessment of p53 conformation and sequence-specific DNA binding of p53.

Row | Substance | Activity Score | AS (Activity Score) | Conformation, activity score | PCR, activity score
1 | pCAP111 (SNIHHQV) | 5 | 5 |  | 
2 | pCAP112 (TTSHHPK) | 2 | 2 |  | 
3 | pCAP113 (HTTAHTH) | 3 | 3 |  | 
4 | pCAP114 (AISHHTR) | 0 | 0 |  | 
5 | pCAP115 (HPHNHTVHNVVY) | 3 | 3 |  | 
6 | pCAP116 (KHHPFDHRLGNQ) | 0 | 0 |  | 
7 | pCAP117 (DHSKFVPLFVRQ) | 3 | 3 |  | 
8 | pCAP118 (SNHHHRHHTNTH) | 13 | 13 |  | 
9 | pCAP119 (HSAHHTM) | 0 | 0 |  | 
10 | pCAP120 (SIRTLGRFLIIRV) | 3 | 3 |  | 
11 | pCAP121 (LTLMRLRIIG) | 5 | 5 |  | 
12 | pCAP122 (HSYSPYYTFRQH) | 5 | 5 |  | 
13 | pCAP123 (GLCRIIL) | 3 | 3 |  | 
14 | pCAP124 (VMVLFRILRGSM) | 2 | 2 |  | 
15 | pCAP125 (ELGLHRH) | 0 | 0 |  | 
16 | pCAP126 (RRLRICV) | 0 | 0 |  | 
17 | pCAP127 (SPPIRHH) | 3 | 3 |  | 
18 | pCAP128 (CILRLWW) | 19 | 19 |  | 
19 | pCAP130 (EVTFRHSVVRRRRRRRRRRR) | 13 | 13 |  | 
20 | pCAP131 (LPNPPERHHRRRRRRRRRRR) | 18 | 18 |  | 
21 | pCAP132 (NHPWQFPNRWTRRRRRR) | 7 | 7 |  | 
22 | pCAP133 (SLLIGFGIIRSRRRRRRRR) | 10 | 10 |  | 

Row | Substance | Activity Score | AS (Activity Score) | Conformation, activity score | PCR, activity score
23 | pCAP134 (IRILMFLIGCGRRRRRRRR) | 40 | 40 |  | 
24 | pCAP135 (HTDSHPHHHHPHRRRRR) | 10 | 10 |  | 
25 | pCAP136 (SILTLRLRRLRRRRRRRR) | 14 | 14 |  | 
26 | pCAP137 (GAMHLPWHMGTRRRRRR) | 8 | 8 |  | 
27 | pCAP138 (YPTQGHLRRRRRRRRRRRR) | 11 | 11 |  | 
28 | pCAP139 (MHPPDWYHHTPKRRRRRR) | 12 | 12 |  | 
29 | pCAP140 (TDSHSHHRRRRRRRRRRR) | 6 | 6 |  | 
30 | pCAP141 (SWQALALYAAGWRRRRRR) | 29 | 29 |  | 
31 | pCAP142 (TLYLPHWHRHRRRRRRRRRR) | 14 | 14 |  | 
32 | pCAP143 (IPMNFTSHSLRQRRRRRRRRR) | 6 | 6 |  | 
33 | pCAP144 (SFILFIRRGRLGRRRRRRRRR) | 49 | 49 |  | 
34 | pCAP145 (HSSHHHPVHSWNRRRRRRR) | 7 | 7 |  | 
35 | pCAP146 (HANLHHTRRRRRRRRRRR) | 11 | 11 |  | 
36 | pCAP147 (ATQHHYIKRRRRRRRRRRR) | 10 | 10 |  | 
37 | pCAP148 (WNHHHSTPHPRRRRRRRRRR) | 43 | 43 |  | 
38 | pCAP149 (FPGHTIHRRRRRRRRRRR) | 13 | 13 |  | 
39 | pCAP150 (IIRGNFLIGGRLRRRRRRRRR) | 26 | 26 |  | 
40 | pCAP151 (CILRLWWRRRRRRRRRRR) | 33 | 33 |  | 
41 | pCAP152 (YRRLLIGMRRRRRRRRRRRR) | 11 | 11 |  | 
42 | pCAP153 (YWSAPQPATRRRRRRRRRRR) | 6 | 6 |  | 
43 | pCAP154 (LRCLLLLIGRVGRKKRRQRR) | 57 | 57 |  | 
44 | pCAP155 (IRGRIIRRRRRRRRRR) | 41 | 41 |  | 

Row | Substance | Activity Score | AS (Activity Score) | Conformation, activity score | PCR, activity score
45 | pCAP156 (VPHIHEFTRRRRRRRR) | 0 | 0 |  | 
46 | pCAP157 (SFILFIRRGRLGRKKRRQRRRP) | 37 | 37 |  | 
47 | pCAP158 (SFILFIRRGRLGRGDR) | 18 | 18 |  | 
48 | pCAP159 ([dR][dR][dR][dR][dR][dR][dR][dR]G[dL][dR]G[dR][dR][dI][dF][dL][dI][dF][dS]) | 53 | 53 |  | 
49 | pCAP160 ({FITC′}-SFILFIRRGRLGRRRRRRRRR) | 24 | 24 |  | 
50 | pCAP161 (HNAH) | 29 | 29 |  | 
51 | pCAP162 (SILT) | 2 | 2 |  | 
52 | pCAP163 (LTLS) | 4 | 4 |  | 
53 | pCAP164 (PLTLI) | 0 | 0 |  | 
54 | pCAP165 (SLLIG) | 0 | 0 |  | 
55 | pCAP166 (KPPER) | 0 | 0 |  | 
56 | pCAP167 (FILIR) | 5 | 5 |  | 
57 | pCAP168 (CRIIR) | 0 | 0 |  | 
58 | pCAP169 (SFILI) | 0 | 0 |  | 
59 | pCAP170 (IRILM) | 27 | 27 |  | 
60 | pCAP171 (PHHHS) | 0 | 0 |  | 
61 | pCAP172 (EFHS) | 0 | 0 |  | 
62 | pCAP173 (RLRRL) | 0 | 0 |  | 
63 | pCAP174 (HSTPHP) | 54 | 54 |  | 
64 | pCAP175 (DSPR) | 0 | 0 |  | 
65 | pCAP176 (HPWTH) | 0 | 0 |  | 
66 | pCAP177 (HFSHH) | 0 | 0 |  | 

Row | Substance | Activity Score | AS (Activity Score) | Conformation, activity score | PCR, activity score
67 | pCAP178 (RRVI) | 0 | 0 |  | 
68 | pCAP179 (ILVI) | 0 | 0 |  | 
69 | pCAP201 (HPTHPIRLRDNLTR) | 3 |  |  | 
70 | pCAP202 (DEDAKFRIRILMRR) | 8 |  | 3 | 
71 | pCAP203 (RRRHDSCHNQLQNYDHSTE) | 42 |  |  | 4
72 | pCAP204 (MSTESNMPRLIQNDDRRR) | 20 |  |  | 5
73 | pCAP205 (RCRNRKKEKTECLQKESEK) | 5 |  |  | 
74 | pCAP206 (RRRSHSQENVDQDTDE) | 19 |  |  | 6
75 | pCAP207 (RRSRSNEDVEDKTEDE) | 0 |  |  | 
76 | pCAP208 (RRIRSGGKDHAWTPLHENH) | 0 |  |  | 
77 | pCAP209 (HTPHPPVARTSPLQTPRR) | 0 |  |  | 
78 | pCAP210 (DEFERYRRFSTSRRR) | 29 |  | 3 | 6
79 | pCAP211 (PDSEPPRMELRRR) | 0 |  |  | 
80 | pCAP212 (Myristoyl-REEETILIIRRR) | 3 |  |  | 
81 | pCAP213 (RRIKMIRTSESFIQHIVS) | 5 |  |  | 
82 | pCAP214 (RRRESEQRSISLHHHST) | 2 |  |  | 
83 | pCAP215 (RRDTFDIRILMAF) | 0 |  |  | 
84 | pCAP216 (Myristoyl-HFNHYTFESTCRRRRC; cysteine pairing not given here) | 2 |  |  | 
85 | pCAP217 (HSTPHPPQPPERRR) | 2 |  |  | 
86 | pCAP218 (RREVTELHHTHEDRR) | 0 |  |  | 
87 | pCAP219 (SYRHYSDHWEDRRR) | 1 |  |  | 
88 | pCAP220 (STTHPHPGTSAPEPATRRR) | 6 |  |  | 

Row | Substance | Activity Score | AS (Activity Score) | Conformation, activity score | PCR, activity score
89 | pCAP221 (Myristoyl-RRKHNKHRPEPDSDER) | 60 |  | 3 | 6
90 | pCAP222 (RYEENNGVNPPVQVFESRTR) | 4 |  |  | 
91 | pCAP223 (SPWTHERRCRQR) | 0 |  |  | 
92 | pCAP224 (RRKSEPHSLSGGYQTGAD) | 2 |  |  | 
93 | pCAP225 (HTIHSISDFPEPPDRRRR) | 3 |  |  | 
94 | pCAP226 (DDSDNRIIRYRR) | 6 |  |  | 
95 | pCAP227 (Myristoyl-RRKILFIRLMHNKH) | 67 |  | 4 | 4
96 | pCAP228 (DEDAAHSTGHPHNSQHRRRR) | 3 |  |  | 
97 | pCAP229 (Myristoyl-PRVLPSPHTIHPSQYP) | 36 |  |  | 4
98 | pCAP230 (RKRGKSYAFFVPPSESKERW) | 63 |  | 3 | 6
99 | pCAP231 (HRTQSTLILFIRRGRET) | 9 |  |  | 
100 | pCAP232 (RSRSSHLRDHERTHT) | 0 |  |  | 
101 | pCAP233 (SHYHTPQNPPSTRRR) | 11 |  |  | 
102 | pCAP234 (HRTGHYTRCRQRCRSRSHNRH) | 2 |  |  | 
103 | pCAP235 (RSYSKLLCLLERLRISP) | 11 |  |  | 
104 | pCAP236 (RRRSTNTFLGEDFDQ) | 0 |  |  | 
105 | pCAP237 (HTIHVHYPGNRQPNPPLILQR) | 12 |  |  | 
106 | pCAP238 (TSPHPSLPRHIYPRR) | 6 |  |  | 
107 | pCAP239 (REGFYGPWHEQRRR) | 4 |  |  | 
108 | pCAP240 (TEQHHYIPHRRR) | 3 |  |  | 
